# Where no end group is shown, it is not given here.
# Columns and labels:
# MRSA (strain USA300) = assay: MRSA bacteremia model in nu/nu mice lacking T-cells; format: in vivo, mouse; conditions: female nu/nu mice, single dose 50 mg/kg IV 4 h prior to infection; 14 days
# Experimental: RIVPA (SEQ ID NO. 5) is also effective when administered by itself. Multiple studies with IV administered RIVPA (SEQ ID NO. 5) were conducted in a MRSA bacteremia model. […] In the first study, MRSA (USA300, 7.3 log 10 cfu) was administered via IV injection into the tail vein of female Balb/c mice at time 0. Four hours prior to infection, a single dose of saline or RIVPA (SEQ ID NO. 5) at the indicated dose levels was injected IV into the tail vein. Sub-optimal antibiotic treatment (linezolid, 6.25 mg/kg) was administered once orally immediately after infection. Survival was monitored for 21 days after the infection. In the second study, RIVPA (SEQ ID NO. 5) (IV) or saline (IV) was administered once 4 h prior to infection with MRSA (strain USA300, 7.0 log10 cfu) via the tail vein into female nu/nu mice. Statistically significant differences (i.e., p≤05) in survival were found with the 50 mg/kg dose level as assessed using Kaplan Meier analysis of each treatment group relative to the saline control.
# metabolism and excretion = conditions: in vivo
# MRSA (UC6685) = assay: MRSA peritoneal infection model in combination with vancomycin; format: in vivo, mouse; conditions: female CF-1 mice, 50 mg/kg IV 48 or 72 h prior to inoculation, with vancomycin 3 mg/kg SC 1 and 5 h after infection; 5 days
# Experimental: RIVPA (SEQ ID NO. 5) (50 mg/kg) or saline treatment was administered IV either 48 or 72 h prior to inoculation with MRSA (UC6685; 8.2×10^7 colony forming units [cfu]) to female CF-1 mice (N=10/group). Vancomycin treatment (3 mg/kg) was administered subcutaneously (SC), 1 and 5 h after infection. Survival was monitored once daily for 5 days.
# mouse normal blood cells = assay: proliferation of mouse normal blood cells in vitro; format: cell-based
# mice = assay: mouse IV toxicity studies (pilot single dose, GLP 14-day, acute); format: in vivo
# Experimental: Two pilot and 2 definitive repeat-dose toxicity studies were conducted with RIVPA (SEQ ID NO. 5) in mice and cynomolgus monkeys using the intravenous (IV; slow bolus) route of administration. All studies were conducted by LAB Research Inc., Canada.
# These resolved within a few minutes without detectable residual effects.
# The safety of multiple daily injections of RIVPA (SEQ ID NO. 5) has also been evaluated in GLP studies in mice and cynomolgus monkeys. In mouse, doses of 20, 60, or 90 mg/kg/day were given IV for 14 days.
# The observed respiratory depression occurred at different dose levels in different species, and was not predicted by allometric scaling. In particular, the mouse appeared to be the most sensitive species with acute toxicity occurring rarely at 60 mg/kg (HED: ^˜5 mg/kg) and commonly at 90 mg/kg (HED: ^˜7 mg/kg). In contrast in NHP (cynomologus monkey), acute toxicity occurred occasionally at 160 mg/kg (HED: ^˜50 mg/kg) and consistently at 240 mg/kg (HED: ^˜78 mg/kg).
# human normal blood cells = assay: proliferation of human normal blood cells in vitro; format: cell-based
substance,measurement,setting,value
"RIVPA-NH2 [RIVPA (SEQ ID NO. 5), RIVPA]",survival over the saline control,MRSA (strain USA300),statistically significant enhanced survival
same,primary metabolism,metabolism and excretion,proteases throughout body tissues
same,"role of urine, feces and bile excretion in clearance",metabolism and excretion,very minor role
same,survival,MRSA (UC6685),increased survival
same,proliferation of normal blood cells,mouse normal blood cells,did not promote the proliferation
same,"immune-related organ weights, histopathology, hematology and clinical chemistry",mice; mouse 14-day toxicity study,no changes were observed
same,adverse effects,"mice; mouse, 20 mg/kg for 14 days",No adverse effects were observed
same,mortality or clinical signs,"mice; mouse, 20 mg/kg/day IV for 14 days",No test article-related mortality or clinical signs
same,HED of acutely toxic dose,"mice; mouse, 60 mg/kg",~5 mg/kg
same,occurrence of acute toxicity (respiratory depression),"mice; mouse, 60 mg/kg",rarely
same,mortality,"mice; mouse, 60 mg/kg/day IV for 14 days",Lethality was also observed in 1 animal
same,HED of acutely toxic dose,"mice; mouse, 90 mg/kg",~7 mg/kg
same,occurrence of acute toxicity (respiratory depression),"mice; mouse, 90 mg/kg",commonly
same,mortality,"mice; mouse, 90 mg/kg/day IV for 14 days",Deaths were observed
same,"organ toxicity, biochemistry, hematology","mice; mouse, survivors of all groups, 14 days",no evidence of toxicity in any organ or abnormal biochemistry or hematology
same,proliferation of normal blood cells,human normal blood cells,did not promote the proliferation

# — patent US11311598B2, “Peptides and analogs for use in the treatment of oral mucositis” (Soligenix, Inc., priority 2013, dated 2022)
